{"source": "paper PMC5136666", "about": "“Epobis is a Nonerythropoietic and Neuroprotective Agonist of the Erythropoietin Receptor with Anti-Inflammatory and Memory Enhancing Effects” (Mediators of Inflammation, 2016)", "key": {"primary rat motoneurons": {"tested_on": "primary rat motoneurons", "experiment": "Neurite outgrowth from primary motoneurons", "type": "cell-based", "conditions": "24 h, bell-shaped concentration dependence, p < 0.0001, 3 independent experiments", "procedure": "Primary rat motoneurons were isolated as described previously. Briefly, the ventral horns of the lumbar spinal cord were dissected from Wistar rat embryos (E15). The dissociated motoneurons were plated at a density of 7,000 cells per well on laminin-coated (5 μg/mL; Sigma-Aldrich) 8-well LabTek Permanox slides (NUNC, Denmark). Neurons were stimulated with serially diluted Epobis peptide for 24 h, fixed with 4% formalin, stained with polyclonal rabbit anti-rat growth-associated protein-43 antibodies (1 : 1000; Millipore), and analyzed by computer-assisted fluorescence microscopy as described."}, "[1]": {"tested_on": "TNF secretion from AMJ2-C8 macrophages", "experiment": "Macrophage activation assay (TNF secretion estimated from L-cell viability)", "type": "cell-based, mouse", "conditions": "untreated ~48%, MTS, 4 experiments", "procedure": "The macrophage activation assay is used to estimate tumor necrosis factor (TNF) secretion from the macrophage cell line AMJ2-C8 (ATCC; Boras, Sweden). Fibroblastoid mouse L929 cells (L-cells; ECCC, Salisbury, UK) are sensitive to TNF upon exposure to actinomycin D, and L-cell survival can therefore be utilized as an indirect estimate of TNF concentrations. The assay was performed essentially as described previously. Briefly, AMJ2-C8 cells were plated in 6-well MultiDish plates (Nunc, Denmark) and treated with 100 μM hydrocortisone (Sigma-Aldrich, Brøndby, Denmark), […] (8.4 nM) rhEPO (Calbiochem, Merck Millipore, Denmark), or Epobis (0.9–8.1 μM) for 24 h. They were then exposed to 10 ng/mL interferon-γ (IFN-γ) (R&D Systems, UK) for 24 h to induce the production of TNF [34].\nL-cells were seeded in 96-well Multiwell plates (2 × 10^5 cells/mL, 100 μL/well; Nunc) and grown for 24 h. Then conditioned medium from stimulated macrophages was collected and added to the L-cells together with actinomycin D (Sigma, Sigma-Aldrich). L-cell viability was assayed 24 h later by the MTS assay (Promega, Madison, WI, USA) according to the manufacture's protocol. Cell viability was calculated as follows: (1) cell viability %=ODexperiment/ODcontrol×100. […]"}, "[2]": {"tested_on": "TNF secretion from rat primary microglia", "experiment": "LPS-induced TNF release from rat primary microglia (ELISA)", "type": "cell-based", "conditions": "0.9 μM, 1 h pretreatment, LPS 100 ng/mL 24 h, p < 0.05, 3 experiments", "procedure": "Mixed glial cultures were prepared from 1-day-old to 2-day-old Wistar rat pups as described previously. Briefly, cortices were dissected, roughly chopped, and incubated in prewarmed 0.5% trypsin for 10 min. Then Dulbecco's modified Eagle's medium (DMEM) plus GlutaMAX (culture media; Gibco) containing 10% fetal calf serum, penicillin (100 U/mL), and streptomycin (100 U/mL) was added and tissue was triturated. The suspension was centrifuged at 500 ×g for 10 min, and the resulting pellet was resuspended in culture media and plated in a poly-L-lysine-coated T180 flask. The mixed glial culture was grown for 2-3 weeks at 37°C in a humidified 5% CO2 : 95% air environment. The medium was changed first at day 2 after culture preparation and then every 5-6 days. […] Images were recorded using a Zeiss Axiovert 100 microscope mounted with an AxioCam MRm camera using the accompanying ZEN 2012 software.\nTo induce TNF secretion, microglia cells were treated with lipopolysaccharide (LPS; 100 ng/mL; Sigma) following 1 h pretreatment in the absence or presence of Epobis. Conditioned media were collected 24 h later and released TNF was determined using a rat TNF Ready-SET-Go!® ELISA kit according to the manufacturer's instructions (eBioscience, San Diego, USA)."}, "[3]": {"experiment": "Detection of Epobis in plasma and cerebrospinal fluid", "type": "in vivo, Wistar rats", "conditions": "rat", "procedure": "Detection of biotinylated Epobis in plasma was performed essentially as described previously. Briefly, 10 mg/kg Epobis was injected subcutaneously (s.c.) in anaesthetized 200 g Wistar rats, and blood samples were collected from the orbital plexus at selected time points. Cerebrospinal fluid (CSF) was sampled from the cisterna magna as described previously.\nSubsequently the concentrations of peptide in serum plasma and CSF were estimated using a competitive enzyme-linked immunosorbent assay, where all samples were run in duplicate."}, "[4]": {"tested_on": "hematocrit and hemoglobin levels in mice", "experiment": "Hematopoiesis assay", "type": "in vivo", "conditions": "10 mg/kg s.c. twice per week for 5 weeks, female C57BL/6J mice", "procedure": "Estimates of hematopoietic activity of Epobis in female C57BL/6J mice were performed essentially as described previously. Briefly, Epobis (10 mg/kg), EPO (10 mg/kg; Calbiochem), or vehicle (PBS) was injected subcutaneously twice per week for 5 weeks. Blood samples were collected from the orbital plexus once per week, and hemoglobin levels and hematocrit values were determined as described."}, "EAE in Lewis rats": {"tested_on": "EAE in Lewis rats", "experiment": "Experimental autoimmune encephalomyelitis (EAE)", "type": "in vivo", "procedure": "Experimental autoimmune encephalomyelitis (EAE) was induced as described previously. Briefly, female Lewis rats (200 g) received subcutaneous injections at both sides of the base of the tail with 0.2 mL of an emulsion containing 1 g/L Guinea pig myelin basic protein and 1 g/L M. tuberculosis in Freund's complete adjuvant (all from Sigma-Aldrich). The injections were performed under full inhalation anesthesia. EAE was induced in 30 animals; 6 healthy, age-matched, unimmunized rats were used as controls. Between day 0 and day 21, the weight and clinical signs of EAE were recorded daily for all animals. Clinical signs were scored as follows: 0, no abnormality; 0.5, weak tail; 1, limp tail; 2, mild palsy of one or both hind legs; 3, severe palsy of one or both hind legs; 4, complete paralysis of one or both hind legs; 5, paralysis of one or both hind legs and beginning paralysis of front legs; 6, moribund. Animals with a clinical score ≥4 were sacrificed immediately.\nStarting at day 10 after induction of EAE, animals were treated once/day for 5 consecutive days with Epobis (10 mg/kg, 1 mL/kg, s.c.) or PBS (1.0 mL/kg, s.c.). The control group is identical to the control group of previously published data performed simultaneously with the Epobis study."}, "[5]": {"tested_on": "short-term/working memory of adult rats", "experiment": "Social recognition test", "type": "in vivo, rat", "conditions": "10 mg/kg single s.c., healthy adult rats", "procedure": "The social recognition assay evaluates short-term/working memory of adult rats, a type of memory known to be impaired in old (>18 month) rats and in rats experiencing early stage AD [38]. Social recognition in rats was evaluated essentially as described previously. First, a habituation session was carried out; 24 h later, Epobis (10 mg/kg, 1 mL/kg, s.c.) or PBS (1.0 mL/kg, s.c.) was administered, and 1 h later the test animals were introduced to a new, juvenile male rat for 4 min (initial trial). After another 2.5 h the same juvenile rat was reintroduced, or as a control, an unfamiliar juvenile rat was introduced (test trial). To test long-term effects of the peptide, another social recognition test was performed with the initial trial taking place 73 h after administration of test compounds. Data are expressed as a recognition ratio: RR = T2/(T2 + T1), where T1 and T2 are the times spent on investigating the juvenile animal during the initial and the test trial, respectively."}, "EPO receptor": {"biological_target": "EPO receptor", "conditions": "surface plasmon resonance; read-out: apparent KD; cited from earlier work", "text": "We have previously designed two synthetic, dendrimeric peptides with sequences corresponding to the first and the second EPO receptor binding site of human EPO, respectively. The peptide derived from binding site 2 was named Epotris and has previously been reported to promote neuritogenesis and neuronal survival in vitro and in vivo in a nonerythropoietic manner and to attenuate status epilepticus. The peptide derived from binding site 1 (residues 36–53 in the structural model of the EPO:EPO receptor-complex; PDB: 1EER [27]) was named Epobis, and surface plasmon resonance analy ..."}, "[6]": {"conditions": "biotinylated Epobis, 10 mg/kg single s.c., competitive ELISA, n = 6"}, "[7]": {"conditions": "10 mg/kg s.c. once/day for 5 days from day 10, Lewis rats"}}, "note": "Positions of bridges follow the written chain, without caps; N, C: chain ends. Chains are numbered I, II in the order given. No end group written: not given here.", "data": [{"substance": "I: NENITVPDTKVNFYAWKRKK-NH2 / II: NENITVPDTKVNFYAWKRK / III: NENITVPDTKVNFYAWKR / IV: NENITVPDTKVNFYAWKR (amide I:19-IV:C, I:20-II:C, II:19-III:C; C-terminus assumed) [Epobis]", "values": [{"measurement": "concentration of maximal stimulation of neurite outgrowth", "setting": "primary rat motoneurons", "value": 0.33, "unit": "µM"}, {"measurement": "L-cell viability relative to control (highest)", "setting": "[1]; conditioned medium from IFN-γ-activated AMJ2-C8 macrophages pretreated 24 h with 2.7 μM Epobis, p < 0.05", "value": "~ 68%"}, {"measurement": "LPS-induced TNF secretion from microglia", "setting": "[2]", "value": "significant decrease"}, {"measurement": "plasma : CSF ratio", "setting": "[3]; 2 h after single s.c. 10 mg/kg", "value": "approximately 20"}, {"measurement": "time of peak plasma concentration", "setting": "[3]; [6]", "value": "around 2 h"}, {"measurement": "time the peptide remained detectable in blood", "setting": "[3]; [6]", "value": "at least 24 h"}, {"measurement": "effect on hematocrit", "setting": "[4]", "value": "did not cause any statistically significant increases"}, {"measurement": "effect on hemoglobin levels", "setting": "[4]", "value": "did not cause any statistically significant increases"}, {"measurement": "effect on survival of EAE animals versus vehicle", "setting": "EAE in Lewis rats; [7]", "value": "no significant effects"}, {"measurement": "effect on weight changes of EAE animals versus vehicle", "setting": "EAE in Lewis rats; [7]", "value": "no significant effects"}, {"measurement": "activated microglia in the brain stem of EAE animals, Epobis versus vehicle", "setting": "EAE in Lewis rats; 10 mg/kg s.c. once/day for 5 days from day 10, immunohistochemistry", "value": "no difference"}, {"measurement": "clinical signs of EAE versus vehicle, later time points", "setting": "EAE in Lewis rats; 10 mg/kg s.c. once/day for 5 days from day 10, n = 10", "value": "not significantly different"}, {"measurement": "clinical signs of EAE versus vehicle, day 2 after onset", "setting": "EAE in Lewis rats; 10 mg/kg s.c. once/day for 5 days from day 10, n = 10, p < 0.05", "value": "significantly lower"}, {"measurement": "recognition ratio (RR) versus vehicle, test 73 h after administration", "setting": "[5]; n = 12, t-test p < 0.018, different from 0.5 p < 0.0001", "value": "significantly lower"}, {"measurement": "recognition ratio (RR) versus vehicle, test 1 h after administration", "setting": "[5]; n = 12, t-test p > 0.05", "value": "no significant difference"}, {"measurement": "Kd", "setting": "EPO receptor", "value": "~60", "unit": "nM"}]}, {"substance": "erythropoietin [EPO]", "values": [{"measurement": "L-cell viability relative to control", "setting": "[1]; conditioned medium from IFN-γ-activated AMJ2-C8 macrophages pretreated 24 h with 8.4 nM EPO", "value": "~ 64%"}, {"measurement": "effect on hematocrit", "setting": "[4]", "value": "statistically significant increases"}, {"measurement": "effect on hemoglobin levels", "setting": "[4]", "value": "statistically significant increases"}]}]}
